Measurements published in ChEMBL document CHEMBL4000149, “The effect of glycine replacement with flexible ω-amino acids on the antimicrobial and haemolytic activity of an amphipathic cyclic heptapeptide” (Eur J Med Chem, 2015).
In brackets after ≈: the same amount, converted by molar mass. Numbered stars: 1 amine (or outer) side, 2 acyl side, 3 side chain; on linkers, the order of the positions; unused ones are H or OH. Bridge positions count the residues as written; N and C are the ends. Square brackets hold non-standard residues; d marks the D form. Peptide text beside a SMILES is read from it. ξ: configuration not given here. Dip = N[C@H](C(=O)O)C(c1ccccc1)c1ccccc1; NH(CH2)9CO = O=C(CCCCCCCCCN[*:1])[*:2]; 2Nal = N[C@@H](Cc1ccc2ccccc2c1)C(=O)O; Cha = N[C@@H](CC1CCCCC1)C(=O)O; Aoc = NCCCCCCCC(=O)O; ξDab = NCCC(N)C(=O)O; Ahx = NCCCCCC(=O)O; GABA = NCCCC(=O)O

Key:
Acinetobacter baumannii = test: Antimicrobial activity against multidrug-resistant Acinetobacter baumannii ATCC BAA-1605 by tube dilution method; type: functional
Enterococcus faecium = test: Antimicrobial activity against vancomycin-resistant Enterococcus faecium ATCC 700221 by tube dilution method; type: functional
Klebsiella pneumoniae = test: Antimicrobial activity against multidrug-resistant Klebsiella pneumoniae ATCC 700603 by tube dilution method; type: functional
Pseudomonas aeruginosa = test: Antimicrobial activity against Pseudomonas aeruginosa ATCC 27853 by tube dilution method; type: functional
[1] = Toxicity in human erythrocytes assessed as hemolysis at 150 uM after 1 hr; type: cell-based, Erythrocyte; conditions: read-out: Activity
[2] = Toxicity in human erythrocytes assessed as hemolysis after 1 hr; type: cell-based, Erythrocyte
Escherichia coli = test: Antimicrobial activity against Escherichia coli ATCC 25922 by tube dilution method; type: functional
Candida albicans = test: Antifungal activity against Candida albicans ATCC 200955 by tube dilution method; type: functional
Staphylococcus aureus = test: Antimicrobial activity against methicillin-resistant Staphylococcus aureus ATCC 33591 by tube dilution method; type: functional

SMILES	MIC (Acinetobacter baumannii) [µM]	MIC (Enterococcus faecium) [µM]	MIC (Klebsiella pneumoniae) [µM]	MIC (Pseudomonas aeruginosa) [µM]	hemolysis at 1 h, 150 µM [1] [%]	EC50 at 1 hr [2] [µM]	MIC (Escherichia coli) [µM]	MIC (Candida albicans) [µM]	MIC (Staphylococcus aureus) [µM]
CC(C)C[C@@H]1NC(=O)CNC(=O)[C@H](Cc2ccc3ccccc3c2)NC(=O)[C@H](CCCNC(=N)N)NC(=O)[C@H](CC(C)C)NC(=O)[C@H](Cc2ccc3ccccc3c2)NC(=O)[C@H](CCCNC(=N)N)NC1=O	128 (≈ 127 µg/mL)	8 (≈ 7.92 µg/mL)	128 (≈ 127 µg/mL)	64 (≈ 63.4 µg/mL)	27	215	32 (≈ 31.7 µg/mL)	16 (≈ 15.8 µg/mL)	8 (≈ 7.92 µg/mL)
CC(C)C[C@@H]1NC(=O)CNC(=O)[C@H](Cc2ccc3ccccc3c2)NC(=O)[C@H](CCCNC(=N)N)NC(=O)[C@H]([C@@H](C)O)NC(=O)[C@H](Cc2ccc3ccccc3c2)NC(=O)[C@H](CCCNC(=N)N)NC1=O (cyclo([2Nal]GLR[2Nal]TR))	> 128	128 (≈ 125 µg/mL)	> 128	> 128	< 8	> 150	128 (≈ 125 µg/mL)	128 (≈ 125 µg/mL)	128 (≈ 125 µg/mL)
CC(C)C[C@@H]1NC(=O)CCCCCCCCCNC(=O)[C@H](Cc2ccc3ccccc3c2)NC(=O)[C@H](CCCNC(=N)N)NC(=O)[C@H](CC(C)C)NC(=O)[C@H](Cc2ccc3ccccc3c2)NC(=O)[C@H](CCCNC(=N)N)NC1=O (cyclo([2Nal]LR[2Nal][NH(CH2)9CO]LR))	16 (≈ 17.6 µg/mL)	4 (≈ 4.41 µg/mL)	> 64	> 64	100	15	64 (≈ 70.6 µg/mL)	16 (≈ 17.6 µg/mL)	4 (≈ 4.41 µg/mL)
CCCCCCC1NC(=O)[C@@H](Cc2ccc3ccccc3c2)NC(=O)[C@H](CCCNC(=N)N)NC(=O)[C@H](CC(C)C)NC(=O)CNC(=O)[C@H](Cc2ccc3ccccc3c2)NC(=O)[C@H](CCCNC(=N)N)NC1=O (some centres undefined)	64 (≈ 65.2 µg/mL)	8 (≈ 8.15 µg/mL)	64 (≈ 65.2 µg/mL)	64 (≈ 65.2 µg/mL)	92	55	32 (≈ 32.6 µg/mL)	16 (≈ 16.3 µg/mL)	8 (≈ 8.15 µg/mL)
CC(C)C[C@@H]1NC(=O)[C@H](Cc2ccc3ccccc3c2)NC(=O)[C@H](CCCNC(=N)N)NC(=O)[C@H](CCC(N)=O)NC(=O)CNC(=O)[C@H](Cc2ccc3ccccc3c2)NC(=O)[C@H](CCCNC(=N)N)NC1=O (cyclo([2Nal]GQR[2Nal]LR))	> 128	16 (≈ 16.1 µg/mL)	> 128	> 128	< 8	> 150	> 128	128 (≈ 129 µg/mL)	128 (≈ 129 µg/mL)
CC(C)C[C@@H]1NC(=O)CNC(=O)[C@H](Cc2ccc3ccccc3c2)NC(=O)[C@H](CCCNC(=N)N)NC(=O)[C@H](CC(C)C)NC(=O)[C@H](Cc2ccc3ccccc3c2)NC(=O)[C@H](CCCCN)NC1=O (cyclo([2Nal]GLK[2Nal]LR))	> 128	16 (≈ 15.4 µg/mL)	> 128	128 (≈ 123 µg/mL)	14	> 150	128 (≈ 123 µg/mL)	32 (≈ 30.8 µg/mL)	32 (≈ 30.8 µg/mL)
CC(C)C[C@@H]1NC(=O)CCCCCCCNC(=O)[C@H](Cc2ccc3ccccc3c2)NC(=O)[C@H](CCCNC(=N)N)NC(=O)[C@H](CC(C)C)NC(=O)[C@H](Cc2ccc3ccccc3c2)NC(=O)[C@H](CCCNC(=N)N)NC1=O (cyclo([2Nal][Aoc]LR[2Nal]LR))	8 (≈ 8.6 µg/mL)	2 (≈ 2.15 µg/mL)	16 (≈ 17.2 µg/mL)	32 (≈ 34.4 µg/mL)	100	22	16 (≈ 17.2 µg/mL)	4 (≈ 4.3 µg/mL)	2 (≈ 2.15 µg/mL)
CC(C)C[C@@H]1NC(=O)CCCNC(=O)C(N)CCNC(=O)[C@H](Cc2ccc3ccccc3c2)NC(=O)[C@H](CCCNC(=N)N)NC(=O)[C@H](CC(C)C)NC(=O)[C@H](Cc2ccc3ccccc3c2)NC(=O)[C@H](CCCNC(=N)N)NC1=O (some centres undefined) (H-[ξDab][GABA]LR[2Nal]LR[2Nal]; lactam 1-C)	32 (≈ 35.8 µg/mL)	8 (≈ 8.95 µg/mL)	32 (≈ 35.8 µg/mL)	64 (≈ 71.6 µg/mL)	12	255	32 (≈ 35.8 µg/mL)	16 (≈ 17.9 µg/mL)	16 (≈ 17.9 µg/mL)
CC(C)C[C@@H]1NC(=O)[C@H](Cc2ccc3ccccc3c2)NC(=O)[C@H](CCCNC(=N)N)NC(=O)[C@H](CC2CCCCC2)NC(=O)CNC(=O)[C@H](Cc2ccc3ccccc3c2)NC(=O)[C@H](CCCNC(=N)N)NC1=O (cyclo([2Nal]G[Cha]R[2Nal]LR))	64 (≈ 65.9 µg/mL)	16 (≈ 16.5 µg/mL)	128 (≈ 132 µg/mL)	128 (≈ 132 µg/mL)	99	28	32 (≈ 33 µg/mL)	32 (≈ 33 µg/mL)	16 (≈ 16.5 µg/mL)
CC(C)C[C@@H]1NC(=O)CNC(=O)[C@H](Cc2ccccc2)NC(=O)[C@H](CCCCN)NC(=O)[C@H](CC(C)C)NC(=O)[C@H](Cc2ccccc2)NC(=O)[C@H](CCCCN)NC1=O (cyclo(FGLKFLK))	128 (≈ 107 µg/mL)	128 (≈ 107 µg/mL)	> 128	> 128	< 8	> 150	128 (≈ 107 µg/mL)	> 128	> 128
CC(C)C[C@@H]1NC(=O)CNC(=O)[C@H](Cc2ccc3ccccc3c2)NC(=O)[C@H](CCCCN)NC(=O)[C@H](CC(C)C)NC(=O)[C@H](Cc2ccc3ccccc3c2)NC(=O)[C@H](CCCCN)NC1=O (cyclo([2Nal]GLK[2Nal]LK))	> 128	16 (≈ 14.9 µg/mL)	> 128	128 (≈ 120 µg/mL)	13	> 150	128 (≈ 120 µg/mL)	64 (≈ 59.8 µg/mL)	32 (≈ 29.9 µg/mL)
CC(C)C[C@@H]1NC(=O)CCCCCNC(=O)[C@H](Cc2ccc3ccccc3c2)NC(=O)[C@H](CCCNC(=N)N)NC(=O)[C@H](CC(C)C)NC(=O)[C@H](Cc2ccc3ccccc3c2)NC(=O)[C@H](CCCNC(=N)N)NC1=O (cyclo([2Nal][Ahx]LR[2Nal]LR))	64 (≈ 67 µg/mL)	4 (≈ 4.19 µg/mL)	128 (≈ 134 µg/mL)	64 (≈ 67 µg/mL)	75	115	32 (≈ 33.5 µg/mL)	16 (≈ 16.7 µg/mL)	8 (≈ 8.37 µg/mL)
CC(C)C[C@@H]1NC(=O)CNC(=O)[C@H](C(c2ccccc2)c2ccccc2)NC(=O)[C@H](CCCNC(=N)N)NC(=O)[C@H](CC(C)C)NC(=O)[C@H](C(c2ccccc2)c2ccccc2)NC(=O)[C@H](CCCNC(=N)N)NC1=O (cyclo([Dip]GLR[Dip]LR))	64 (≈ 66.7 µg/mL)	16 (≈ 16.7 µg/mL)	128 (≈ 133 µg/mL)	> 128	54	145	64 (≈ 66.7 µg/mL)	64 (≈ 66.7 µg/mL)	16 (≈ 16.7 µg/mL)
CC[C@H](C)[C@@H]1NC(=O)[C@H](Cc2ccc3ccccc3c2)NC(=O)[C@H](CCCNC(=N)N)NC(=O)[C@H]([C@@H](C)O)NC(=O)CCCCCCCNC(=O)[C@H](Cc2ccc3ccccc3c2)NC(=O)[C@H](CCCNC(=N)N)NC1=O (cyclo([2Nal][Aoc]TR[2Nal]IR))	128 (≈ 136 µg/mL)	16 (≈ 17 µg/mL)	> 128	> 128	10	> 150	128 (≈ 136 µg/mL)	64 (≈ 68 µg/mL)	32 (≈ 34 µg/mL)
CC(C)C[C@@H]1NC(=O)CNC(=O)[C@@H](Cc2ccc3ccccc3c2)NC(=O)[C@H](CCCNC(=N)N)NC(=O)[C@H](CC(C)C)NC(=O)[C@H](Cc2ccc3ccccc3c2)NC(=O)[C@H](CCCNC(=N)N)NC1=O	128 (≈ 127 µg/mL)	16 (≈ 15.8 µg/mL)	> 128	> 128	< 8	> 150	128 (≈ 127 µg/mL)	64 (≈ 63.4 µg/mL)	32 (≈ 31.7 µg/mL)
CC(C)C[C@@H]1NC(=O)[C@H](Cc2ccc3ccccc3c2)NC(=O)[C@H](CCCNC(=N)N)NC(=O)[C@H](CC(C)C)NC(=O)[C@@H](N)CCCCNC(=O)[C@H](Cc2ccc3ccccc3c2)NC(=O)[C@H](CCCNC(=N)N)NC1=O (H-KLR[2Nal]LR[2Nal]; lactam 1-C)	32 (≈ 34 µg/mL)	4 (≈ 4.25 µg/mL)	32 (≈ 34 µg/mL)	32 (≈ 34 µg/mL)	51	150	32 (≈ 34 µg/mL)	8 (≈ 8.49 µg/mL)	8 (≈ 8.49 µg/mL)
